Results as given in US20130143866A1, “ANTICANCER COMBINATION TREATMENTS” (priority 2011, published 2013).

Columns and labels:
+SA mammary tumor cells = assay: HGF-dependent +SA mammary tumor cell growth, viable cell number by MTT colorimetric assay; format: cell-based, mice; conditions: for HGF-dependent +SA cell growth: vs vehicle-treated control; for +SA tumor cell growth: summary statement, HGF-dependent, in a dose-responsive manner
Description: +SA mammary tumor cells were used for the examples presented herein. […] In addition, +SA cells can form adenocarcinomas that metastasize to the lungs when injected into the mammary gland fat pad of syngeneic female mice. +SA cells were maintained in serum-free defined media containing 10 ng/mL Hepatocyte growth factor (HGF) as the mitogen, Dulbecco's Modified Eagle's Medium (DMEM)/F12 supplemented with 5 mg/mL bovine serum albumin (BSA), 10 μg/mL transferrin, 100 U/mL soybean trypsin inhibitor, 100 U/mL penicillin, 0.1 mg/mL streptomycin and 10 μg/mL insulin at 37° C. in an environment of 95% air and 5% CO2 in humidified incubator. For subculturing, cells were rinsed with sterile Ca^2+ and Mg^2+-free phosphate buffered saline (PBS) and incubated with 0.05% trypsin containing 0.025% EDTA in PBS for 5 min at 37° C. The released cells were centrifuged, resuspended in serum-free media and counted using hemocytometer.
γ-tocotrienol was prepared for the tests of this example by suspending it in a solution of sterile 10% BSA. An appropriate amount of γ-tocotrienol was dissolved in 100 μL of absolute ethyl alcohol and then added to a small volume of sterile 10% BSA in water and incubated overnight at 37° C. This stock solution was used to prepare various concentrations of the treatment media. Ethanol was added to all treatment groups in a given experiment such that the final concentration of ethanol never exceeded 0.1%. Stock solution of the Met inhibitor, SU11274 was prepared in DMSO and DMSO was added to all treatment media such that the final concentration was same in all treatment groups and never exceeded a concentration of 0.1%.
+SA cells were initially seeded at a density of 5×10^4 cells/well (6 replicates/group) in 24-well plates in serum-free defined media containing 10 ng/mL HGF as mitogen and allowed to attach overnight. For growth studies, +SA cells were maintained in serum-free defined media containing various doses of HGF over a 3-day culture period. In the antiproliferative experiments, cells were exposed to respective experimental treatments containing various concentrations of SU11274 or γ-tocotrienol alone or in combination for three days. On the fourth day, cells were divided into different treatment groups and treated with various concentrations of SU11274 or γ-tocotrienol alone or in combination for 24 hours. At the end of the treatment exposure period, the viable +SA cell number was determined by 3-(4,5-dimethylthiazol-2yl)-2,5-diphenyl tetrazolium bromide (MTT) colorimetric assay. Control and treatment media in various treatment groups in 24-well plates were replaced with fresh media containing 0.41 mg/ml MTT. After 4-h incubation period, the media was removed and MTT crystals were dissolved in isopropanol (1 ml/well), and the optical density of each sample was measured at 570 nm on a microplate reader (SpectraCount, Packard BioScience Company). The number of cells/well was calculated against a standard curve prepared by plating various concentrations of cells, as determined by hemocytometer, at the beginning of each experiment.
Vertical bars indicate mean viable cell number±SEM for six replicates in each treatment group. Differences among various treatment groups in +SA cell growth studies were determined by the analysis of variance (ANOVA) followed by Dunnett's t test. A difference of P<0.05 was considered statistically significant as compared to the vehicle-treated control.
Effects of various doses of SU11274, a specific Met Receptor Tyrosine Kinase inhibitor, or γ-tocotrienol on HGF-dependent +SA mammary tumor cell growth after a 3-day culture period are shown in FIG. 2. […] In the present example, +SA cells were initially plated at a density of 5×10^4 cells/well (6 replicates/group) in 24-well plates and exposed to various doses of SU11274 or γ-tocotrienol in the presence of 10 ng/mL HGF throughout a 3-day culture period. Viable cell number was determined using the MTT colorimetric assay. […]

Met = target: T1, Met (Mus musculus, UniProt P16056); assay: Western blot analysis of total and phosphorylated (active) Met levels in HGF-stimulated +SA cells; format: cell-based, mice; conditions: for HGF-dependent Met tyrosine phosphorylation: summary statement, in a dose-responsive manner
T1 construct: whole cell lysates were prepared and then subjected to polyacrylamide gel electrophoresis and Western blot analysis for total and phosphorylated Met levels; endogenous in cells; host or cells: +SA mammary tumor cells
T1 sequence (P16056 25-1379): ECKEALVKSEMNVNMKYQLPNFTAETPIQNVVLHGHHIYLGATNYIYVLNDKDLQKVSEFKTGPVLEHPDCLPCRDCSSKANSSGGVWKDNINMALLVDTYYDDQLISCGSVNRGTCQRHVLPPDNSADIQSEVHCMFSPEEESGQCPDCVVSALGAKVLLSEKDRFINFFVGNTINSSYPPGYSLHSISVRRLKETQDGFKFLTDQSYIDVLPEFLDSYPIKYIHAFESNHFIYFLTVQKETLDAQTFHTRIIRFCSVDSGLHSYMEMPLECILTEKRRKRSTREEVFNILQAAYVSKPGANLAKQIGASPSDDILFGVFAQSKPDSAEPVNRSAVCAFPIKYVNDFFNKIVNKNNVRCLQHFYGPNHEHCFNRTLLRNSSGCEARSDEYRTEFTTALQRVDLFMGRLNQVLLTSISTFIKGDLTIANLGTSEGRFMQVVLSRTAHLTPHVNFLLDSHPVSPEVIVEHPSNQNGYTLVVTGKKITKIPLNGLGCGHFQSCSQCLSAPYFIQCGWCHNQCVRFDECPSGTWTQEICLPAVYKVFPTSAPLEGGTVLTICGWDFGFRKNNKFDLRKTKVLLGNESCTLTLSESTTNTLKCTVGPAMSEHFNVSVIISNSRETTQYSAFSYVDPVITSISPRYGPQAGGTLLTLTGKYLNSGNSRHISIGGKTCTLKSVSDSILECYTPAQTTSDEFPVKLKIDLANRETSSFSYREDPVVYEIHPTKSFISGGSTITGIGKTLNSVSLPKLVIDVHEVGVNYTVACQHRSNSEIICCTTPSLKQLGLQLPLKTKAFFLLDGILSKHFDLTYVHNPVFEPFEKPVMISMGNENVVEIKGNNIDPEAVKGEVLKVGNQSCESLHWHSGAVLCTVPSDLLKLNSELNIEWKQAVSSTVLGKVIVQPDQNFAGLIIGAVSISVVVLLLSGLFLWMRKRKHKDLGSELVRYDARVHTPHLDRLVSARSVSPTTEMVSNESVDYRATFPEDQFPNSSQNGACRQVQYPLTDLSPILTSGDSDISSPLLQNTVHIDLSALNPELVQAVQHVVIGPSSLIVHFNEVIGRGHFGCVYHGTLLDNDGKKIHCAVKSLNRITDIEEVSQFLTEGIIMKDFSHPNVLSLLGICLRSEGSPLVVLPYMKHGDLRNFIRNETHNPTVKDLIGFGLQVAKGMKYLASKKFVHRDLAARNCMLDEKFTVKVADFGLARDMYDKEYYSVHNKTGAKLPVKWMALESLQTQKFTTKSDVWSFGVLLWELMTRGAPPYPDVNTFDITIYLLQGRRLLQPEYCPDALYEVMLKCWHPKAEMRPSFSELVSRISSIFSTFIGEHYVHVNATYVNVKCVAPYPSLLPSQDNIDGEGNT
Description: For Western blot analysis, +SA cells were initially plated at a density of 1×10^6 cells/100-mm culture dish, allowed to attach overnight and then incubated in the respective control or treatment media. At the end of treatment period, cells were isolated with trypsin, washed with PBS, and then whole cell lysates were prepared in a Laemmle buffer. Protein concentration in each sample was determined using a protein assay kit (Bio-Rad protein assay kit, Bio Rad, Hercules, Calif., USA). Equal amount of protein (30-50 μg/lane) of each sample was subjected to electrophoresis through 7.5%-15% SDS-polyacrylamide minigels. Minigels within a given treatment were run simultaneously using AccuPower model 500 power supply unit (VWR, Suwanee, Ga., USA). Each gel was then equilibrated in transfer buffer and transblotted at 30 V for 12-16 hours at 4° C. onto a polyvinylidene fluoride (PVDF) membrane (PerkinElmer Lifesciences, Wellesley, Mass., USA) in a Trans-Blot Cell (Bio-Rad Laboratories, Hercules, Calif.) according to the method of Towbin. These PVDF membranes were then blocked with 2% BSA in 10 mM Tris-HCl containing 50 mM NaCl and 0.1% Tween 20, pH 7.4 (TBST) and then, incubated with specific primary antibodies against Met, phospho-Met, cleaved caspase-3, cleaved PARP, and α-tubulin diluted 1:1000 to 1:5000 in 2% BSA in TBST for 2 hours at room temperature or overnight at 4° C. Membranes were then washed 5 times with TBST and incubated with respective horseradish […]-conjugated secondary antibody diluted 1:3000 to 1:5000 in 2% BSA in TBST for 1 hour at room temperature followed by rinsing with TBST for 5 times. Blots were then visualized by chemiluminescence. (Pierce, Rockford, Ill., USA). Images of protein bands from all treatment groups within a given experiment were acquired using Kodak Gel Logic 1500 Imaging System (Carestream Health Inc, New Haven, Conn., USA). The visualization of α-tubulin was used to ensure equal sample loading in each lane.
+SA cells were plated at a density of 1×10^6 cells/100 mm culture dish. Cells were then incubated with serum-free media containing vehicle (control), 5.5 μM SU11274 or 4 μM γ-tocotrienol and 10 ng/mL HGF as the mitogen for a 3-day culture period. Following treatment exposure, cells were incubated in mitogen-free media overnight. Afterwards, cells were stimulated with 100 ng/mL HGF for 30 min Cells incubated in mitogen-free media were used as untreated controls. Following mitogen exposure, whole cell lysates were prepared and then subjected to polyacrylamide gel electrophoresis and Western blot analysis for total and phosphorylated Met levels. α-Tubulin was visualized to ensure equal sample loading in each lane. Each Western blot is a representative image of the data obtained for experiments that were repeated at least three times.
The +SA cells were plated at a density of 1×10^6 cells/100 mm culture dish. Cells were then incubated with serum-free media containing vehicle (control) or 4 μM γ-tocotrienol, and 10 ng/mL HGF as a mitogen. Cells were collected at various times during the next 72-h period. Following treatment exposure at each time point, cells were incubated in mitogen-free media overnight. Afterwards, cells were stimulated with 100 ng/mL HGF for 30 min Cells incubated with mitogen-free media were used as untreated controls. Following mitogen exposure, whole cell lysates were prepared and then subjected to polyacrylamide gel electrophoresis and Western blot analysis for total and phosphorylated (active) Met receptor levels. α-Tubulin was visualized to ensure equal sample loading in each lane. Western blots presented in FIG. 4 are representative of the data obtained for experiments that were repeated at least three times.
Cells were then incubated with serum-free media containing vehicle (control), 3 μM SU11274, 2 μM γ-tocotrienol or the combination of 3 μM SU11274 and 2 μM γ-tocotrienol, and 10 ng/mL HGF as a mitogen for a 3-day culture period. […]

[1] = 4 μM γ-tocotrienol, 10 ng/mL HGF, time course over 72 h, vs vehicle-treated control
[2] = 5.5 μM SU11274, 3-day culture, then 100 ng/mL HGF for 30 min, vs vehicle-treated control

Compound	HGF-dependent +SA cell growth (+SA mammary tumor cells; 4 μM γ-tocotrienol, 10 ng/mL HGF, 3-day culture, P<0.05)	HGF-dependent +SA cell growth (+SA mammary tumor cells; subeffective dose 2 μM γ-tocotrienol alone, 10 ng/mL HGF, 3-day culture)	+SA tumor cell growth (+SA mammary tumor cells)	culture exposure time at which reduction in total levels of Met protein was maximal (Met; [1]) [days]	treatment exposure time at which reduction in total levels of Met protein started (Met; [1]) [h]	level of total Met protein (Met; 4 μM γ-tocotrienol, 3-day culture, then 100 ng/mL HGF for 30 min)	HGF-induced Met phosphorylation (Met; 4 μM γ-tocotrienol, 3-day culture, then 100 ng/mL HGF for 30 min, mirrors loss of Met expression)	HGF-dependent Met tyrosine phosphorylation (Met)	HGF-dependent +SA cell growth (+SA mammary tumor cells; 4.5-5.5 μM SU11274, 10 ng/mL HGF, 3-day culture, P<0.05)	HGF-dependent +SA cell growth (+SA mammary tumor cells; subeffective dose 3 μM SU11274 alone, 10 ng/mL HGF, 3-day culture)	HGF-dependent Met tyrosine phosphorylation (activation) (Met; [2])	total intracellular levels of Met receptors (Met; [2])	growth of neoplastic +SA mammary epithelial cells (viable cell number) (+SA mammary tumor cells; stimulation with 1-10 ng/mL HGF, 3-day culture, dose-responsive, vs mitogen-free control media, P<0.05)
CC(C)=CCC/C(C)=C/CC/C(C)=C/CC[C@]1(C)CCc2cc(O)c(C)c(C)c2O1 [γ-tocotrienol]	significantly inhibited	no effect	inhibited	3	24	significant reduction	loss	inhibited	–	–	–	–	–
Cc1[nH]c(/C=C2\C(=O)Nc3ccc(S(=O)(=O)N(C)c4cccc(Cl)c4)cc32)c(C)c1C(=O)N1CCN(C)CC1 [SU11274, reference compound]	–	–	inhibited	–	–	–	–	inhibited	significantly inhibited	no effect	large relative reduction	no effect	–
HGF: Hepatocyte growth factor (HGF), the mitogen, purchased from PeproTech Inc.	–	–	–	–	–	–	–	–	–	–	–	–	significantly increased
